Experiment: Determination of salt-forming ratios of pilocarpine salt formulations (HPLC)
Format: physicochemical
Settings: for salt-forming ratios of the formulations: different conditions
Description: The determination of the salt-forming ratios of the pilocarpine salt formulations was performed using high-performance liquid chromatography with the following conditions: chromatographic column: C18 column; sample injection volume: 10 μL; mobile phase: K2HPO4 (adjusted to pH 6.50±0.1 with phosphoric acid)-methanol-acetonitrile (63:2:35); flow rate: 0.7 mL/min; column temperature: 30° C.; detection wavelength: 215 nm; […] determination was performed, and the salt-forming ratios were calculated according to the peak areas of free acid radicals and pilocarpine.
(§1) The samples were separately injected to determine the salt-forming ratios of different compound 1 formulations. Meanwhile, the salt-forming ratios of the compound 1 formulation solutions with different pH values under different conditions were determined using the above stability examination methods.
as §1, with “2” for “1”

[1] = formulation pH 4.8, 40° C./10 d
[2] = formulation pH 4.8, 60° C./10 d
[3] = formulation pH 4.8, Light irradiation/5 d
[4] = formulation pH 4.8, Light irradiation/10 d

CC[C@@H]1C(=O)OC[C@@H]1Cc1cncn1C [Compound 1]
salt-forming ratios of the formulations: substantially stable
Salt-forming ratio (formulation pH 3.6, 0 d): 1.19
Salt-forming ratio (formulation pH 3.6, 40° C./5 d): 1.08
Salt-forming ratio (formulation pH 3.6, 40° C./10 d): 1.09
Salt-forming ratio (formulation pH 3.6, 60° C./5 d): 1.15
Salt-forming ratio (formulation pH 3.6, 60° C./10 d): 1.24
Salt-forming ratio (formulation pH 3.6, Light irradiation/5 d): 1.06
Salt-forming ratio (formulation pH 3.6, Light irradiation/10 d): 1.06
Salt-forming ratio (formulation pH 4.1, 0 d): 1.03
Salt-forming ratio (formulation pH 4.1, 40° C./5 d): 1.06
Salt-forming ratio (formulation pH 4.1, 40° C./10 d): 1.06
Salt-forming ratio (formulation pH 4.1, 60° C./5 d): 1.09
Salt-forming ratio (formulation pH 4.1, 60° C./10 d): 1.10
Salt-forming ratio (formulation pH 4.1, Light irradiation/5 d): 1.04
Salt-forming ratio (formulation pH 4.1, Light irradiation/10 d): 1.04
Salt-forming ratio (formulation pH 4.7, 0 d): 1.03
Salt-forming ratio (formulation pH 4.7, 40° C./5 d): 1.04
Salt-forming ratio (formulation pH 4.7, 40° C./10 d): 1.02
Salt-forming ratio (formulation pH 4.7, 60° C./5 d): 1.02
Salt-forming ratio (formulation pH 4.7, 60° C./10 d): 1.00
Salt-forming ratio (formulation pH 4.7, Light irradiation/5 d): 1.03
Salt-forming ratio (formulation pH 4.7, Light irradiation/10 d): 1.03
Salt-forming ratio (formulation pH 4.8, 0 d): 1.02
Salt-forming ratio (formulation pH 4.8, 40° C./5 d): 1.04
Salt-forming ratio [1]: 1.02
Salt-forming ratio (formulation pH 4.8, 60° C./5 d): 0.99
Salt-forming ratio [2]: 0.97
Salt-forming ratio [3]: 1.03
Salt-forming ratio [4]: 1.02
Salt-forming ratio (formulation pH 5.1, 0 d): 1.02
Salt-forming ratio (formulation pH 5.1, 40° C./5 d): 1.03
Salt-forming ratio (formulation pH 5.1, 40° C./10 d): 1.01
Salt-forming ratio (formulation pH 5.1, 60° C./5 d): 0.97
Salt-forming ratio (formulation pH 5.1, 60° C./10 d): 0.92
Salt-forming ratio (formulation pH 5.1, Light irradiation/5 d): 1.03
Salt-forming ratio (formulation pH 5.1, Light irradiation/10 d): 1.02
Salt-forming ratio (formulation pH 5.6, 0 d): 1.02
Salt-forming ratio (formulation pH 5.6, 40° C./5 d): 1.01
Salt-forming ratio (formulation pH 5.6, 40° C./10 d): 0.98
Salt-forming ratio (formulation pH 5.6, 60° C./5 d): 0.91
Salt-forming ratio (formulation pH 5.6, 60° C./10 d): 0.85
Salt-forming ratio (formulation pH 5.6, Light irradiation/5 d): 1.02
Salt-forming ratio (formulation pH 5.6, Light irradiation/10 d): 1.01

CC[C@@H]1C(=O)OC[C@@H]1Cc1cncn1C [Compound 2]
salt-forming ratios of the formulations: substantially stable
Salt-forming ratio (formulation pH 4.3, 0 d): 1.25
Salt-forming ratio (formulation pH 4.3, 40° C./5 d): 1.14
Salt-forming ratio (formulation pH 4.3, 40° C./10 d): 1.15
Salt-forming ratio (formulation pH 4.3, 60° C./5 d): 1.17
Salt-forming ratio (formulation pH 4.3, 60° C./10 d): 1.23
Salt-forming ratio (formulation pH 4.3, Light irradiation/5 d): 1.12
Salt-forming ratio (formulation pH 4.3, Light irradiation/10 d): 1.13
Salt-forming ratio (formulation pH 4.5, 0 d): 1.00
Salt-forming ratio (formulation pH 4.5, 40° C./5 d): 1.02
Salt-forming ratio (formulation pH 4.5, 40° C./10 d): 1.01
Salt-forming ratio (formulation pH 4.5, 60° C./5 d): 1.02
Salt-forming ratio (formulation pH 4.5, 60° C./10 d): 1.01
Salt-forming ratio (formulation pH 4.5, Light irradiation/5 d): 1.01
Salt-forming ratio (formulation pH 4.5, Light irradiation/10 d): 1.01
Salt-forming ratio (formulation pH 4.8, 0 d): 1.00
Salt-forming ratio (formulation pH 4.8, 40° C./5 d): 1.01
Salt-forming ratio [1]: 1.00
Salt-forming ratio (formulation pH 4.8, 60° C./5 d): 0.98
Salt-forming ratio [2]: 0.96
Salt-forming ratio [3]: 1.01
Salt-forming ratio [4]: 1.01
Salt-forming ratio (formulation pH 5.0, 0 d): 1.00
Salt-forming ratio (formulation pH 5.0, 40° C./5 d): 1.00
Salt-forming ratio (formulation pH 5.0, 40° C./10 d): 0.99
Salt-forming ratio (formulation pH 5.0, 60° C./5 d): 0.95
Salt-forming ratio (formulation pH 5.0, 60° C./10 d): 0.92
Salt-forming ratio (formulation pH 5.0, Light irradiation/5 d): 1.00
Salt-forming ratio (formulation pH 5.0, Light irradiation/10 d): 1.00
Salt-forming ratio (formulation pH 5.5, 0 d): 0.99
Salt-forming ratio (formulation pH 5.5, 40° C./5 d): 0.98
Salt-forming ratio (formulation pH 5.5, 40° C./10 d): 0.97
Salt-forming ratio (formulation pH 5.5, 60° C./5 d): 0.90
Salt-forming ratio (formulation pH 5.5, 60° C./10 d): 0.85
Salt-forming ratio (formulation pH 5.5, Light irradiation/5 d): 1.00
Salt-forming ratio (formulation pH 5.5, Light irradiation/10 d): 1.00
